Results as given in patent US20240262857A1, “NOVEL UNIVERSAL ANTI-RNA VIRUS AGENTS” (priority 2021, published 2024).
Read-outs that look alike come from different tables or passages of the source.

Tests used:
SARS-CoV-2 = assay: microbe, parasite or virus in culture; format: cell-based
[1] = Cellular toxicity assay, Huh7 cells; format: cell-based; conditions: human, read-out: Cytotoxicity CC50 Huh7
[2] = Cellular toxicity assay, PBM cells; conditions: human
[3] = Cellular toxicity assay, Vero cells; conditions: African green monkey
[4] = Cellular toxicity assay, CEM cells; conditions: human
HCoV-OC43 = assay: microbe, parasite or virus in culture; format: cell-based; conditions: Betacoronavirus 1, OC43
CEM cells = assay: Cellular toxicity assay, CEM cells; conditions: read-out: Cytotoxicity CC50 CEM; CEM cells
Vero cells [5] = assay: Cellular toxicity assay, Vero cells; conditions: read-out: Cytotoxicity CC50 Vero; Vero cells
Vero cells [6] = assay: Incubation of NHC in Vero cells, LC-MS/MS of deoxy-NHC derivatives; conditions: 4 h at 37° C.
[7] = target: T1, ribonucleotide reductase (RNR) (Homo sapiens, UniProt P23921)
T1 sequence (P23921 1-792): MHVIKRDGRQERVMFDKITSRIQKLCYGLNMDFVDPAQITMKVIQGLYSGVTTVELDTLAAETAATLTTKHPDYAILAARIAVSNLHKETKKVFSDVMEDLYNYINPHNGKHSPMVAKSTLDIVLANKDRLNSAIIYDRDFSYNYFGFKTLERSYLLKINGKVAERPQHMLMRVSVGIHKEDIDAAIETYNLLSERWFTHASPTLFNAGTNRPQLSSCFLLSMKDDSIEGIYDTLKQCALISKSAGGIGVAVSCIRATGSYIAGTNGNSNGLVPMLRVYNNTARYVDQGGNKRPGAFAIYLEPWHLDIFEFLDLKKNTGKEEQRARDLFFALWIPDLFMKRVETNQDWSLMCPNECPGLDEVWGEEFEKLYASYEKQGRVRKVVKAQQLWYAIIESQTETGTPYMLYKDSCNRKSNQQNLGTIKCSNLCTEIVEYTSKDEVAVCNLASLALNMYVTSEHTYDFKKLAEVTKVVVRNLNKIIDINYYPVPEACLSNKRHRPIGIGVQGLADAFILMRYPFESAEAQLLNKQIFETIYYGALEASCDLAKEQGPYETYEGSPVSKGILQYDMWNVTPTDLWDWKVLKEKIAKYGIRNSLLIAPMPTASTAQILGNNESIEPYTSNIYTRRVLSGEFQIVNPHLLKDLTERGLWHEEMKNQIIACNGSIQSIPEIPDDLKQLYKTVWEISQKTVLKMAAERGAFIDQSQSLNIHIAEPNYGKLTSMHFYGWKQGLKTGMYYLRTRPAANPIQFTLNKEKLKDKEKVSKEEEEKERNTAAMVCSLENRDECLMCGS
T1 sequence (P31350 1-389 partner): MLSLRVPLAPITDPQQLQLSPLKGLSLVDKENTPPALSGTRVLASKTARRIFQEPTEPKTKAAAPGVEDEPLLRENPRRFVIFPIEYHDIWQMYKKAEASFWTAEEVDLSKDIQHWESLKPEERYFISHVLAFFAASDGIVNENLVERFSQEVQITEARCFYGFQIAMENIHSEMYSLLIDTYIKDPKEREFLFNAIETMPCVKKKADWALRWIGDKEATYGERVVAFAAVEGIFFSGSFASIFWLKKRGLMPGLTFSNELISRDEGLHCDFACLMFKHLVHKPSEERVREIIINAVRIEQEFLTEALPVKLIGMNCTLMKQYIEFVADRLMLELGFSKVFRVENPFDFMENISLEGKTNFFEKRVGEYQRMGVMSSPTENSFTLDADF

[8] = Severe acute respiratory syndrome coronavirus 2, Calu-3, Calu3 cells, read-out: Anti-SARS-CoV-2 Activity (Calu3) EC50
[9] = Severe acute respiratory syndrome coronavirus 2, Calu-3, Calu3 cells, read-out: Anti-SARS-CoV-2 Activity (Calu3) EC90
[10] = Severe acute respiratory syndrome coronavirus 2, Vero cells, read-out: Anti-SARS-CoV-2 Activity (Vero) EC50
[11] = Severe acute respiratory syndrome coronavirus 2, Vero cells, read-out: Anti-SARS-CoV-2 Activity (Vero) EC90

SMILES: [2H]C1(O)C(O)[C@H](n2ccc(NO)nc2=O)O[C@@H]1CO (stereo partly drawn) [D-NHC]
- EC50 (SARS-CoV-2; [8]): 200 nM
- EC90 (SARS-CoV-2; [9]): 900 nM
- EC50 (SARS-CoV-2; [10]): 100 nM
- EC90 (SARS-CoV-2; [11]): 250 nM
- CC50 [1]: 27700 nM
- CC50 [2]: 24100 nM
- CC50 [3]: 41600 nM

SMILES: CC1(O)C(O)[C@H](n2ccc(NO)nc2=O)O[C@@H]1CO (stereo partly shown)
- EC50 (SARS-CoV-2; [8]): > 100000 nM
- EC90 (SARS-CoV-2; [9]): > 100000 nM
- EC50 (SARS-CoV-2; [10]): 600 nM
- EC90 (SARS-CoV-2; [11]): 7400 nM
- CC50 [1]: ≥ 100000 nM
- CC50 [2]: > 100000 nM
- CC50 [4]: > 100000 nM
- CC50 [3]: > 100000 nM

SMILES: O=c1nc(NO)ccn1[C@@H]1O[C@H](CO)[C@@H](O)[C@H]1O [NHC, N^4-hydroxycytidine]
- EC50 (SARS-CoV-2; [8]): 600 nM
- EC90 (SARS-CoV-2; [9]): 2000 nM
- EC50 (SARS-CoV-2; Severe acute respiratory syndrome coronavirus 2, read-out: Anti-SARS-Cov-2 EC50): 300 nM
- EC50 (SARS-CoV-2; [10]): 200 nM
- EC90 (SARS-CoV-2; [11]): 420 nM
- EC90 (SARS-CoV-2; Severe acute respiratory syndrome coronavirus 2, read-out: Anti-SARS-Cov-2 EC90): 800 nM
- EC50 (HCoV-OC43; read-out: Anti-Hcov-OC43 EC50): 800 nM
- EC90 (HCoV-OC43; read-out: Anti-Hcov-OC43 EC90): 1800 nM
- CC50 (CEM cells): 2600 nM
- CC50 (Vero cells [5]): 16500 nM
- deoxy-NHC-TP detected in vero cells (Vero cells [6]; 10 μM NHC, cell pellet): not
- deoxy-NHC-TP detected in vero cells (Vero cells [6]; 50 μM NHC, cell pellet): trace amount
- level of deoxy-NHC, -MP and -DP in vero cells (Vero cells [6]; cell pellet): below limit of detection
- deoxy-NHC or its derivatives in vero cell medium (Vero cells [6]; supernatant): no deoxy-NHC or its derivatives was detected

SMILES: O=c1nc(NO)ccn1[C@@H]1O[C@H](COP(=O)(O)OP(=O)(O)O)[C@@H](O)[C@H]1O [NHC-DP]
- ratio diphosphate : 2'-deoxy-diphosphate in the samples after RNR reaction [7]: around 100:0.1
- ratio triphosphate : 2'-deoxy-triphosphate in the samples after RNR reaction [7]: ~100:0.009
